Structures can show the parent of a compound that is named as a salt.
Assays:
[1] = target: T1, Vitronectin receptor αVβ3 (Homo sapiens, UniProt P05106+P06756); assay: Vitronectin Receptor αVβ3 Binding Assay; details: for IC50: read-out: VnR (IC50μM)
T1 construct: expressed in transfected cells; host or cells: 512P5 cells (plasma membrane preparation)

[2] = system: thyro-parathyroidectomized (TPTX) rats; assay: PTH-induced hypercalcemia of thyroparathyroidectomized male rats; format: in vivo, rat; details: 100 mg/kg, s.c.
Method: Effects of test compounds on PTH-induced hypercalcemia of thyroparathyroidectomized male rats
Male thyro-parathyroidectomized (TPTX) rats (Charles River) were randomly assigned to groups of 7 rats/group. Following a baseline serum calcium determination an Alzet 1003D minipump (Alza Corporation, Palo Alto, Calif.) loaded with 0.3 mg/ml PTH (Bachem, Philadelphia, Pa.) was implanted subcutaneously in each rat. For evaluation of prophylactic effects of a test drug, another minipump with appropriate concentration of the test drug solution was implanted subcutaneously at a site away from PTH minipump. Alternatively, test drugs were administered by oral gavage as a solution or uniform suspension in an appropriate medium depending on the physical properties of the test compound. A group of 7 unimplanted TPTX rats was set aside as a normal control group. Twenty hours after minipump implantation blood was collected from each rat to confirm the presence of hypercalcemia (judged by elevation of serum calcium levels, 2 SD>normal non-implanted level). At various intervals between 0.5 and 24 hours after dosing (usually one to three time points), blood was collected from each rat and the serum evaluated for total calcium. Serum calcium levels were measured using the Nova 7+7 calcium auto analyzer spectrophotometrically using the Sigma test kit (#587A). Test results were determined by the difference in serum calcium between vehicle and treatment group following PTH administration, using a one-way analysis of variance with Dunnett's test or other multiple comparison methods.

T1 sequence (P06756 31-889 limits assumed): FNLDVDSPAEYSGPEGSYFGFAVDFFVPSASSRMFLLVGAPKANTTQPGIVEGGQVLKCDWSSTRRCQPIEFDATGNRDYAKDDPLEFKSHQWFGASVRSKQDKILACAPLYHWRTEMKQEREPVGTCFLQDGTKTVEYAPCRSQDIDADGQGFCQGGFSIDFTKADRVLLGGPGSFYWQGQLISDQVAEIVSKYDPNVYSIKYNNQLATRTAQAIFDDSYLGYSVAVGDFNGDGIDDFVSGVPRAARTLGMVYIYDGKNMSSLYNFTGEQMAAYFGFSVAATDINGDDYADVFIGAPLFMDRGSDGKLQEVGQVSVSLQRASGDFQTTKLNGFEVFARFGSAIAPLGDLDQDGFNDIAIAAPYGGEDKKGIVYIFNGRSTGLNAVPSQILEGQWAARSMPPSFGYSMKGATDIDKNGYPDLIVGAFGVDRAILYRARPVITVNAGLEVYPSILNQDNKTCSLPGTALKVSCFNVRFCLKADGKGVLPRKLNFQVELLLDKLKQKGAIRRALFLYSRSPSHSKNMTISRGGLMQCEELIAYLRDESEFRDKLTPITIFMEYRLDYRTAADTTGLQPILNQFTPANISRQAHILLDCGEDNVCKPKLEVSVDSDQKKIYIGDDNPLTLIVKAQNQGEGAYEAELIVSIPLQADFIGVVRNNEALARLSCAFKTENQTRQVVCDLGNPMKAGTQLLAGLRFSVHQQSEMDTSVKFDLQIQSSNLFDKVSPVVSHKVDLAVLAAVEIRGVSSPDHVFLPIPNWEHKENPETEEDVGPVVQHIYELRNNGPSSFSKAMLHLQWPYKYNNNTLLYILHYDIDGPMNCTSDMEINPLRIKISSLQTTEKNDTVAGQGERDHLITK
T1 sequence (P06756 891-1048 partner limits assumed): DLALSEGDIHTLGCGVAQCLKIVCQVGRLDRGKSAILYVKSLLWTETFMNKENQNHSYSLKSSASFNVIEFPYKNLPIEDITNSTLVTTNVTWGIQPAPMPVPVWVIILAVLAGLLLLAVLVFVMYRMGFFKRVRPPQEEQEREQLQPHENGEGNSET
T1 sequence (P05106 27-788): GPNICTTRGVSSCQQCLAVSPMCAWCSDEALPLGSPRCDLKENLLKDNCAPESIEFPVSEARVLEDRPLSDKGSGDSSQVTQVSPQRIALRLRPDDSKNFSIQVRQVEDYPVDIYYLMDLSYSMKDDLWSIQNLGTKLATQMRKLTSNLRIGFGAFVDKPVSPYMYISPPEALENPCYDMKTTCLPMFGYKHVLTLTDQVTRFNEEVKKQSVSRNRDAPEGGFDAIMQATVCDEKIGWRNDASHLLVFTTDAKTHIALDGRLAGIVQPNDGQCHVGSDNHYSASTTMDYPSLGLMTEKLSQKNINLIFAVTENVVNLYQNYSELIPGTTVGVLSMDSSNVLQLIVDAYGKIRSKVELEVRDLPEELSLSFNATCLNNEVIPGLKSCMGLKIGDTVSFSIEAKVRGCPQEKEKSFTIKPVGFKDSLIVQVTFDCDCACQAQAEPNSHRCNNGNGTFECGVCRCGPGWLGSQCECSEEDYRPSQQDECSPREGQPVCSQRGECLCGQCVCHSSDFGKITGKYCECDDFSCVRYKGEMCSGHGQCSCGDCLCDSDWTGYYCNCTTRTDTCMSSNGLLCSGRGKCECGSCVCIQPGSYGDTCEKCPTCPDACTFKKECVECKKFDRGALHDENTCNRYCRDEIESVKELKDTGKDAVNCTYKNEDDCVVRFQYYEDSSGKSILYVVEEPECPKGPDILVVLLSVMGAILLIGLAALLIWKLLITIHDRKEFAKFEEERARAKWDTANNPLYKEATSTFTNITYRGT

`CCCCCCCCOC(=O)N[C@@H](CNC(=O)c1ccc(OCCNC(=O)NCc2cccnc2)cc1O)C(=O)O` [Example 242, (2S)-3-({2-hydroxy-4-[2-({[(pyridin-3-ylmethyl)amino]carbonyl}-amino)ethoxy]-benzoyl}amino)-2-{[(octyloxy)carbonyl]amino}propanoic acid] showed an IC50 [1] of 7.9 µM.

For `CC(C)(C)COC(=O)N[C@@H](CNC(=O)c1ccc(OCCNC(=O)NCc2cccnc2)cc1O)C(=O)O` [Example 243, (2S)-3-({2-hydroxy-4-[2-({[(pyridin-3-ylmethyl)amino]carbonyl}-amino)ethoxy]-benzoyl}amino)-2-{[(neopentyloxy)carbonyl]amino}propanoic acid], the IC50 [1] was 0.69 µM.

With `O=C(NCCOc1ccc(C(=O)NC[C@H](NC(=O)OCC(Cl)(Cl)Cl)C(=O)O)c(O)c1)NCc1cccnc1` [Example 244, (2S)-3-({2-hydroxy-4-[2-({[(pyridin-3-ylmethyl)amino]carbonyl}amino)-ethoxy]benzoyl}amino)-2-{[(2,2,2-trichloroethoxy)carbonyl]amino}propanoic acid] the IC50 [1] was 1.6 µM.

In the case of `CC(C)COC(=O)N[C@@H](CNC(=O)c1ccc(OCCNC(=O)NCc2cccnc2)cc1O)C(=O)O` [Example 246, (2S)-3-({2-hydroxy-4-[2-({[(pyridin-3-ylmethyl)amino]carbonyl}-amino)ethoxy]-benzoyl}amino)-2-[(isobutoxycarbonyl)amino]propanoic acid], the IC50 [1] is reported as 1.6 µM.

`O=C(NCCOc1ccc(C(=O)NC[C@H](NC(=O)OCc2ccccc2)C(=O)O)c(O)c1)NCc1ccncc1` [Example 247, (2S)-2-{[(benzyloxy)carbonyl]amino}-3-({2-hydroxy-4-[2-({[(pyridin-4-ylmethyl)amino]carbonyl}amino)ethoxy]benzoyl}amino)propanoic acid] gave an IC50 [1] of 5.5 µM.

`CCCCCCOC(=O)N[C@@H](CNC(=O)c1ccc(OCCNC(=O)NCc2ccncc2)cc1O)C(=O)O` [Example 255, (2S)-2-{[(hexyloxy)carbonyl]amino}-3-({2-hydroxy-4-[2-({[(pyridin-4-ylmethyl)amino]carbonyl}amino)ethoxy]benzoyl}amino)propanoic acid] gave an IC50 [1] of 5.31 µM.

For `CCCCCCCCOC(=O)N[C@@H](CNC(=O)c1ccc(OCCNC(=O)NCc2ccncc2)cc1O)C(=O)O` [Example 256, (2S)-3-({2-hydroxy-4-[2-({[(pyridin-4-ylmethyl)amino]carbonyl}-amino)ethoxy]-benzoyl}amino)-2-{[(octyloxy)carbonyl]amino}propanoic acid], the IC50 [1] was 9.08 µM.

Work on `CC(C)(C)COC(=O)N[C@@H](CNC(=O)c1ccc(OCCNC(=O)NCc2ccncc2)cc1O)C(=O)O` [Example 257, (2S)-3-({2-hydroxy-4-[2-({[(pyridin-4-ylmethyl)amino]carbonyl}-amino)ethoxy]-benzoyl}amino)-2-{[(neopentyloxy)carbonyl]amino}propanoic acid] yielded an IC50 [1] of 1.26 µM.

`O=C(NCCOc1ccc(C(=O)NC[C@H](NC(=O)OCC(Cl)(Cl)Cl)C(=O)O)c(O)c1)NCc1ccncc1` [Example 258, (2S)-3-({2-hydroxy-4-[2-({[(pyridin-4-ylmethyl)amino]carbonyl}amino)-ethoxy]-benzoyl}amino)-2-{[(2,2,2-trichloroethoxy)carbonyl]amino}propanoic acid] gave an IC50 [1] of 4.31 µM.

`Cc1ccc(CNC(=O)NCCOc2ccc(C(=O)NC[C@H](NC(=O)OCc3ccccc3)C(=O)O)c(O)c2)cc1` [Example 261, (2S)-2-{[(benzyloxy)carbonyl]amino}-3-({2-hydroxy-4-[2-({[(4-methylbenzyl)-amino]carbonyl}amino)ethoxy]benzoyl}amino)propanoic acid] showed an IC50 [1] of 20.2 µM.

`COc1ccc(CNC(=O)NCCOc2ccc(C(=O)NC[C@H](NC(=O)OCc3ccccc3)C(=O)O)c(O)c2)cc1` [Example 262, (2S)-2-{[(benzyloxy)carbonyl]amino}-3-({2-hydroxy-4-[2-({[(4-methoxybenzyl)-amino]carbonyl}amino)ethoxy]benzoyl}amino)propanoic acid] showed an IC50 [1] of 12.6 µM.

`O=C(NCCOc1ccc(C(=O)NC[C@H](NC(=O)OCc2ccccc2)C(=O)O)c(O)c1)NCc1ccc(Cl)cc1` [Example 263, (2S)-2-{[(benzyloxy)carbonyl]amino}-3-({4-[2-({[(4-chlorobenzyl)amino]-carbonyl}-amino)ethoxy]-2-hydroxybenzoyl}amino)propanoic acid] was tested, and the IC50 [1] was 29 µM.

In the case of `CN(C)c1ccc(CNC(=O)NCCOc2ccc(C(=O)NC[C@H](NC(=O)OCc3ccccc3)C(=O)O)c(O)c2)cc1` [Example 264, (2S)-2-{[(benzyloxy)carbonyl]amino}-3-[(4-{2-[({[4-(dimethylamino)benzyl]-amino}carbonyl)amino]ethoxy}-2-hydroxybenzoyl)amino]propanoic acid], the IC50 [1] is reported as 59.3 µM.

`NS(=O)(=O)c1ccc(CNC(=O)NCCOc2ccc(C(=O)NC[C@H](NC(=O)OCc3ccccc3)C(=O)O)c(O)c2)cc1` [Example 265, (2S)-3-[(4-{2-[({[4-(aminosulfonyl)benzyl]amino}carbonyl)amino]ethoxy}-2-hydroxybenzoyl)amino]-2-{[(benzyloxy)carbonyl]amino}propanoic acid] gave an IC50 [1] of 12.9 µM.

`O=C(NCCOc1ccc(C(=O)NC[C@H](NC(=O)OCc2ccccc2)C(=O)O)c(O)c1)NCc1ccc(OC(F)(F)F)cc1` [Example 266, (2S)-2-{[(benzyloxy)carbonyl]amino}-3-[(2-hydroxy-4-{2-[({[4-(trifluoromethoxy)-benzyl]amino}carbonyl)amino]ethoxy}benzoyl)amino]propanoic acid] showed an IC50 [1] of 29.6 µM.

Work on `O=C(NCCOc1ccc(C(=O)NC[C@H](NC(=O)OCc2ccccc2)C(=O)O)c(O)c1)NCc1ccccc1Cl` [Example 267, (2S)-2-{[(benzyloxy)carbonyl]amino}-3-({4-[2-({[(2-chlorobenzyl)amino]carbonyl}-amino)ethoxy]-2-hydroxybenzoyl}amino)propanoic acid] yielded an IC50 [1] of 10.2 µM.

For `Cc1ccccc1CNC(=O)NCCOc1ccc(C(=O)NC[C@H](NC(=O)OCc2ccccc2)C(=O)O)c(O)c1` [Example 268], the IC50 [1] was 33.4 µM.

`O=C(NCCOc1ccc(C(=O)NC[C@H](NC(=O)OCc2ccccc2)C(=O)O)c(O)c1)NCc1ccccc1Br` [Example 269, (2S)-2-{[(benzyloxy)carbonyl]amino}-3-({4-[2-({[(2-bromobenzyl)amino]-carbonyl}-amino)ethoxy]-2-hydroxybenzoyl}amino)propanoic acid] showed an IC50 [1] of 21.2 µM.

Molecule `O=C(NCCOc1ccc(C(=O)NC[C@H](NC(=O)OCc2ccccc2)C(=O)O)c(O)c1)NCc1ccc(Cl)cc1Cl` [Example 270, (2S)-2-{[(benzyloxy)carbonyl]amino}-3-({4-[2-({[(2,4-dichlorobenzyl)amino]-carbonyl}amino)ethoxy]-2-hydroxybenzoyl}amino)propanoic acid] has an IC50 [1] of 21.7 µM.

`Nc1ccccc1CNC(=O)NCCOc1ccc(C(=O)NC[C@H](NC(=O)OCc2ccccc2)C(=O)O)c(O)c1` [Example 271, (2S)-3-({4-[2-({[(2-aminobenzyl)amino]carbonyl}amino)ethoxy]-2-hydroxybenzoyl}-amino)-2-{[(benzyloxy)carbonyl]amino}propanoic acid] showed an IC50 [1] of 13.7 µM.

With `O=C(NCCOc1ccc(C(=O)NC[C@H](NC(=O)OCc2ccccc2)C(=O)O)c(O)c1)NCc1ccccn1` [Example 272, (2S)-2-{[(benzyloxy)carbonyl]amino}-3-({2-hydroxy-4-[2-({[(pyridin-2-ylmethyl)-amino]carbonyl}amino)ethoxy]benzoyl}amino)propanoic acid] the IC50 [1] was 10.6 µM.

In the case of `CCOC(=O)[C@H](CNC(=O)c1ccc(OCCNc2ncccn2)cc1O)NS(=O)(=O)c1ccccc1` [Example 273], the “TPTX (% inhibition)” value [2] is reported as 57%.

In the case of `CCOC(=O)CC(NC(=O)c1ccc(OCCNc2ncccn2)cc1O)c1cccnc1` (centres unmarked) [Example 281, 3-[2-Hydroxy-4-[2-(pyrimidin-2ylamino)ethoxy]-benzoylamino]-3-pyridine-3-ylpropionic acid ethyl ester], the “VnR (IC50μM)” value [1] is reported as “inactive”.

Molecule `CCOC(=O)CC(NC(=O)c1ccc(OCCNC2=NCCCN2)cc1O)c1cccnc1` (centres unmarked) [Example 283, 3-[2-Hydroxy-4-[2-(3,4,5,6-tetrahydropyrimidin-2-ylamino)ethoxy]benzoylamino]-3-pyridin-3-ylpropionic acid ethyl ester dihydrocloride] has an IC50 [1] of 123 µM.

`O=C(O)CC(NC(=O)c1ccc(OCCNc2ncccn2)cc1O)c1ccccc1` (centres unmarked) [Example 287, 3-[2-hydroxy-4-[2-(pyrimidin-2-ylamino)-ethoxy]benzoyl-amino]-3-phenyl-propanoic acid hydrochloride] gave an IC50 [1] of 0.26 µM.

`NC(CNC(=O)c1ccc(OCCNC2=NCCCN2)cc1O)C(=O)O` (centres unmarked) [Example 295, 2-Amino-3-[2-hydroxy-4-[2-(3,4,5,6-tetra-hydropyrimidin-2-ylamino)ethoxy]-benzoylamino]propionic acid dihydrochloride] gave an IC50 [1] of 0.0018 µM.

With “(2S)-3-({2-hydroxy-4-[2-(pyrimidin-2-ylamino)ethoxy]benzoyl3 amino)-2-{[(4-methoxyanilino)carbonyl]amino}propanoic acid [Example 74]” the IC50 [1] was > 1 µM.

In the case of “(2S)-3-({2-hydroxy-4-[2-(pyrimidin-2-ylamino)ethoxy]benzoyl}amino)-2-{[1-naphthylamino)carbonyl]amino}propanoic acid [Example 91]”, the IC50 [1] is reported as > 1 µM.

In the case of GRGESP [reference compound], the “IC50 (μM)” value ([1]; reference peptides, 125I-Echistatin 50 pM, 512P5 (αVβ3-overexpressing) cell membranes) is reported as “inactive at 100 μM”.
